SMILES strings stand for the structures.

This assay deals with T1, Pleckstrin Homology Domain‐Interacting Protein, second bromodomain (PHIP(2)) (Homo sapiens, UniProt Q8WWQ0).
T1 construct: second bromodomain (PHIP(2))
Briefly: grating-coupled interferometry (waveRAPID) Kd; crystal structure; AlphaScreen IC50. Type of assay: binding. A general note: Bead proximity is the source of the signal in Alpha formats.

On to `O=C(Nc1nc2ccccc2o1)N1CCN(C(=O)c2ccco2)CC1` [PHIP-AM1-20, PHIP‐AM1‐20], for which the Kd stood at 50 µM.

A word on the Kd: it is the constant that tells how readily two partners part at equilibrium. High values mean lower affinity, low ones higher affinity.
